This assay has as its target DRB3*0202 (Homo sapiens, UniProt P01903+P79483, A212P/D57E/F66Y/L67A/R103Q/R218S/R40L/S89Y/T80R/V86D/Y55F/Y59H). The assay can be described thus: peptide affinity binding assay (peptide-MHC binding).

The record followed here is patent publication US20240358808A1, “VACCINE FOR SARS-COV-2” (FLOW PHARMA, INC., priority 2021, published 2024).

DRB3*0202, sequence (P01903 26-254 limits assumed): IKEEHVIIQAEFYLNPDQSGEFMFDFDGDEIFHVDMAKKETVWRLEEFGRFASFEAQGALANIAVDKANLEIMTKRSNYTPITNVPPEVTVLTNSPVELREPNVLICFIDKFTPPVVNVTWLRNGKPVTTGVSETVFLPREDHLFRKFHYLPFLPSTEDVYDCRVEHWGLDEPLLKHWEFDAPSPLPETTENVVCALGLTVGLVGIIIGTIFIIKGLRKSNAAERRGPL
DRB3*0202, sequence (P79483 30-266 R40L/Y55F/D57E/Y59H/F66Y/L67A/T80R/V86D/S89Y/R103Q/A212P/R218S limits assumed): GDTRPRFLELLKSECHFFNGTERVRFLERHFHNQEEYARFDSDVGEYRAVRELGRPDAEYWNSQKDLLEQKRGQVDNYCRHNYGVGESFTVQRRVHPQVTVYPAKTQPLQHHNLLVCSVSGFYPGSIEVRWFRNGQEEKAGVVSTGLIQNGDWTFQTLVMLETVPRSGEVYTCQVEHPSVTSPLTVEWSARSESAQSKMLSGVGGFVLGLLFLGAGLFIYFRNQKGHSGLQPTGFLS

On to `CC(C)C[C@H](NC(=O)[C@@H](NC(=O)[C@H](Cc1c[nH]c2ccccc12)NC(=O)[C@H](C)NC(=O)[C@H](C)NC(=O)[C@@H](NC(=O)[C@H](Cc1ccccc1)NC(=O)[C@H](CCCCN)NC(=O)[C@H](C)N)C(C)C)[C@@H](C)O)C(=O)N[C@@H](CCCCN)C(=O)N[C@@H](C)C(=O)N[C@@H](C)C(=O)N[C@@H](C)C(=O)O` [PADRE], for which the “peptide-MHC binding affinity before and after the addition of an infrared fluorophore ligand” value was “essentially unchanged”.
